The text below walks through data of patent publication US11945822B2, “Pyrazolo-triazine and/or pyrazolo-pxrimidine derivatives as selective inhibitor of cyclin dependent kinase” (QURIENT CO., LTD., priority 2018, dated 2024).

In one experiment the target is T1, CDK1/Cyclin B (Homo sapiens, UniProt P06493).
T1 construct: purchased Invitrogen PR4768C
The experiment can be described thus: Enzymatic assay for CDK1 (FRET based LANCE Ultra kinase assay). Particulars: read-out: CDK1 enzymatic activity (IC50 activity range). Type of experiment: biochemical. The gist of the method:
(§1)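 LANCE Ultra TR-FRET: ULight-MBP peptide (68 nM) with ATP at Km, […], 60 min at 23° C. EDTA plus Eu-anti-phospho-MBP added, another 60 min, then 665/615 nm emission read. Compounds tested as 8-dose 4-fold DMSO dilutions.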
(In TR-FRET formats the signal depends on donor and acceptor labels being close together.)

The next experiment deals with T2, CDK2/Cyclin A (Homo sapiens, UniProt P24941).
T2 construct: purchased Invitrogen PV6290
The experiment can be described thus: Enzymatic assay for CDK2 (FRET based LANCE Ultra kinase assay). The note with it: read-out: CDK2 enzymatic activity (IC50 activity range). In kind it is biochemical. The gist of the method: as §1

A further experiment addresses T3, CDK5/p25 (Homo sapiens, UniProt Q00535).
T3 construct: purchased Invitrogen PR8543B
Kind of experiment: Enzymatic assay for CDK5 (FRET based LANCE Ultra kinase assay). In kind it is biochemical. The note with it: read-out: CDK5 enzymatic activity (IC50 activity range). The essentials:
as §1

The next experiment has as its target T4, CDK7/Cyclin H/MNAT1 (Homo sapiens, UniProt P50613).
T4 construct: purchased Invitrogen PR6749B
Kind of experiment: Enzymatic assay for CDK7 (FRET based LANCE Ultra kinase assay). Type of experiment: biochemical. Particulars: for IC50: read-out: CDK7 enzymatic activity (IC50 activity range). The gist of the method: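 LANCE Ultra TR-FRET kinase assay using a ULight-labeled peptide substrate and a Eu-labeled anti-phospho antibody, with ATP at its Km. Purified CDK/cyclin complex was added to compound after brief centrifugation.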

For another experiment, the system named is H460. Kind of experiment: Cellular H460 viability assay (CellTiter-Glo, 72 hours). The note with it: Homo sapiens, NCI-H460. In kind it is cell-based. The gist of the method:
(§2)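 Cells plated in 96 wells and exposed to compound 72 h at 37 °C, 5% CO2, final DMSO below 0.1%, DMSO control. Viability by CellTiter-Glo luminescence, duplicate.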
In general terms: In ATP-based viability assays light output follows the ATP content of the culture.

In a further experiment the test system is MV4-11. Kind of experiment: Cellular MV4-11 viability assay (CellTiter-Glo, 72 hours). Type of experiment: cell-based. Particulars: Homo sapiens. The gist of the method: as §2
The subject of the next experiment is A2780. The experiment can be described thus: Cellular A2780 viability assay (CellTiter-Glo, 72 hours). The note with it: Homo sapiens. Type of experiment: cell-based. The source says: Human T-cell acute lymphoblastic leukemia cell line, MOLT-4 (ATCC, Cat #CRL-1582), Human multiple myeloma cell line, RPMI-8226 (Invitrogen, Cat #22400-089) and MM.1S (ATCC, Cat #CRL-2974), NSCLC (Non-small cell lung cancer) cell line H460 (ATCC, Cat #HTB-177), Human colon colorectal carcinoma cell line HCT116 (ATCC, Cat #CCL-247), Human acute monocytic leukemia cell line MV4-11 (ATCC, Cat #CRL-9591), OVCAR-3 (ATCC, Cat #HTB-161) and A2780 (ECACC, Cat #93112519) were obtained from ATCC. Cells were grown in RPMI-1640 media (Invitrogen, Cat #22400-089) supplemented with 10% FBS (Invitrogen, Cat #10099141) and 1% penicillin/streptomycin (Invitrogen, Cat #15070063) and cultured at 37° C., 5% CO2 in a humidified chamber. All cell lines were routinely tested for mycoplasma.
The effect of the CDK7 inhibitor to inhibit the growth of target cancer cells was evaluated through the 72 hours time period of viability assay. Briefly, the candidate cell line ware plated in 96 well plate at the following density of cells respectively. 1×10^4 cells/well for MOLT-4, RPMI-8226, MV4-11 and MM.1S, 5×10^3 for H460, HCT116 and OVCAR-3 and IX 10^3 for A2780. After 24 hours, the cells were treated with various concentrations of the compound (ranging from 0.0015 uM to 10 uM). DMSO solvent without compound served as a control and final DMSO concentration less than 0.1%. After 72 hours of incubation at 37° C., 5% CO2 incubator, cells were analyzed for the viability using the CellTiter-Glo Luminescent Cell Viability Assay (Promega, Cat #G7570). All viability assays were performed in duplicate and Luminescence was read using an Envision (Perkin Elmer, USA). Data was analyzed using XLfit software.

Molecules are shown by their SMILES.

T3 sequence (Q00535 whole entry): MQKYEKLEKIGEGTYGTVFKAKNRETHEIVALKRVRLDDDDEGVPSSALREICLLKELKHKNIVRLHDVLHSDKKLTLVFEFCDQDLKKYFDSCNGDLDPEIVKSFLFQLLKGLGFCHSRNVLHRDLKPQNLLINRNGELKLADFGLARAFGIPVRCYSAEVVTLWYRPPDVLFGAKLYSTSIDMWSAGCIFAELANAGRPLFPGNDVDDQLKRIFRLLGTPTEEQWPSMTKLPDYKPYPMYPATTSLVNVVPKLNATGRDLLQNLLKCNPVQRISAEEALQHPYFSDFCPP
T3 sequence (Q15078 99-307 partner limits assumed): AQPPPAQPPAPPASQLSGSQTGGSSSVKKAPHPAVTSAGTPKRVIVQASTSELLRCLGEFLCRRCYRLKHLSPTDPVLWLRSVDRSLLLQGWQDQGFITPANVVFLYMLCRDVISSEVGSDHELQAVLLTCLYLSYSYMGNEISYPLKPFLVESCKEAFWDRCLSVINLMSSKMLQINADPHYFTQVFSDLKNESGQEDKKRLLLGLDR
T1 sequence (P06493 whole entry): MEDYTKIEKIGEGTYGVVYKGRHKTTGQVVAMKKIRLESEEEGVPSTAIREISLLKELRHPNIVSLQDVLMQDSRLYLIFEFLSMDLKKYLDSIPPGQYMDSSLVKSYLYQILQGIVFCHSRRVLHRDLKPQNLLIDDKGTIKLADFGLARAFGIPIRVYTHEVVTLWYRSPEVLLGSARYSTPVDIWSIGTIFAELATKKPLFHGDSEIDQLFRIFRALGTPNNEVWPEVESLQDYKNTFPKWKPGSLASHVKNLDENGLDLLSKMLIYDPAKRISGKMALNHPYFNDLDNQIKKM
T1 sequence (P14635 whole entry partner): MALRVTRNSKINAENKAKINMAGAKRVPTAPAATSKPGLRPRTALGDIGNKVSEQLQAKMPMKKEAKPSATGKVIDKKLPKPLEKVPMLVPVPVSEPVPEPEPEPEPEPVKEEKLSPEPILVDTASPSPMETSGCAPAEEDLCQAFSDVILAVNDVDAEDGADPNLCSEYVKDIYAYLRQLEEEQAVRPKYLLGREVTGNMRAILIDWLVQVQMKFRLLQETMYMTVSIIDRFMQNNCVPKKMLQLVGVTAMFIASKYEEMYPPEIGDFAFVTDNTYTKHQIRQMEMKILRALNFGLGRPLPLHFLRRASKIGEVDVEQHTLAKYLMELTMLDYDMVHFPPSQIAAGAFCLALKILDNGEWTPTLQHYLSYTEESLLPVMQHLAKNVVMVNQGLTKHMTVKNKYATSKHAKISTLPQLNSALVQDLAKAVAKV
T4 sequence (P50613 whole entry): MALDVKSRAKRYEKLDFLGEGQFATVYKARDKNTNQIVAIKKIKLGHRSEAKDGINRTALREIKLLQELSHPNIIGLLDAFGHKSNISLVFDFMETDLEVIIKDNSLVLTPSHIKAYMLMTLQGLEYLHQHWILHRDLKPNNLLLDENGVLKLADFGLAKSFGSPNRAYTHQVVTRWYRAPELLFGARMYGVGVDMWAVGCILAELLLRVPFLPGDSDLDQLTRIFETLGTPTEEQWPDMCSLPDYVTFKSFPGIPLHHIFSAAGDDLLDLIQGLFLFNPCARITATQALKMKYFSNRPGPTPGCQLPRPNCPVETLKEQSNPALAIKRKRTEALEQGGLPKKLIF
T4 sequence (P51946 whole entry partner): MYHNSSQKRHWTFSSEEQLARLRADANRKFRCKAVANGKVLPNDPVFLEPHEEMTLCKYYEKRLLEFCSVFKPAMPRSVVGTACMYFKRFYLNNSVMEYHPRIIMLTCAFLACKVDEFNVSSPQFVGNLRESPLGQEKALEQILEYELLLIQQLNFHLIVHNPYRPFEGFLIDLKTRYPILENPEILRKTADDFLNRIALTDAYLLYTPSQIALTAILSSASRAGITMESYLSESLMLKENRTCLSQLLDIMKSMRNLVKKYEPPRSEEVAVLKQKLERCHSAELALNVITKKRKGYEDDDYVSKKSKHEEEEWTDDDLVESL
T4 sequence (P51948 whole entry partner): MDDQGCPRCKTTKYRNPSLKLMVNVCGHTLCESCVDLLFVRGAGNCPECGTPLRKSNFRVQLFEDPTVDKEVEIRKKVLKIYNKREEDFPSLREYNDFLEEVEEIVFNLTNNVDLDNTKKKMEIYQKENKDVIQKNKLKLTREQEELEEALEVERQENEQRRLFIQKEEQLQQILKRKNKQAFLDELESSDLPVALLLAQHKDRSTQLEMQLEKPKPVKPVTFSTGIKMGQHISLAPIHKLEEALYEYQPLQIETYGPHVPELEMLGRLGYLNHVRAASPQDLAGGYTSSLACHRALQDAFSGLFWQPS

The term IC50 denotes the concentration that inhibits the measured activity by half. In the case of `CC(C)c1cnn2c(NCc3ccccc3-n3cccn3)nc(N3CCc4ncccc4C3)nc12` [Compound 275], the IC50 on CDK1/Cyclin B was above 1000 nM; at CDK2/Cyclin A, above 1000 nM; on CDK5/p25, above 1000 nM; at CDK7/Cyclin H/MNAT1, below 100 nM; in the experiment with H460 it was 1000 to 10000 nM; with MV4-11, 1000 to 10000 nM. Further, the concentration for half-maximal inhibition (IC50) with A2780 was 1000 to 10000 nM. For the same compound, the “CDK1/CDK7: Selectivity of CDK7 inhibition over CDK1 inhibition” value at CDK7/Cyclin H/MNAT1 is given as “A (A=greater than 200 fold)”. Moreover, the “CDK2/CDK7: Selectivity of CDK7 inhibition over CDK2 inhibition” value on CDK7/Cyclin H/MNAT1 is recorded as “B (B=less than 200 fold, but greater than 20 fold)”. Further, the “CDK5/CDK7: Selectivity of CDK7 inhibition over CDK5 inhibition” value on CDK7/Cyclin H/MNAT1 is listed as “B (B=less than 200 fold, but greater than 20 fold)”.
Turning to `CC(C)c1cnn2c(NCc3ccccc3-c3ccc4ccccc4n3)nc(NCC3CCOCC3)nc12` [Compound 267], the IC50 on CDK1/Cyclin B is above 1000 nM; at CDK2/Cyclin A, above 1000 nM; on CDK5/p25, above 1000 nM; on CDK7/Cyclin H/MNAT1, 100 to 1000 nM; in the experiment with H460 it was 1000 to 10000 nM; with MV4-11, above 10000 nM. The compound further showed a half-maximal inhibitory concentration (IC50) with A2780 of 1000 to 10000 nM. At CDK7/Cyclin H/MNAT1, the “CDK1/CDK7: Selectivity of CDK7 inhibition over CDK1 inhibition” value is “B (B=less than 200 fold, but greater than 20 fold)”. Also, the “CDK2/CDK7: Selectivity of CDK7 inhibition over CDK2 inhibition” value at CDK7/Cyclin H/MNAT1 is recorded as “B (B=less than 200 fold, but greater than 20 fold)”. In addition, at CDK7/Cyclin H/MNAT1, the “CDK5/CDK7: Selectivity of CDK7 inhibition over CDK5 inhibition” value is recorded as “B (B=less than 200 fold, but greater than 20 fold)”.
`CC(C)c1cnn2c(NCc3ccccc3-c3ccc4ccccc4n3)nc(NC3CCC(O)CC3)nc12` (stereo not drawn) [Compound 270]: the half-inhibitory concentration (IC50) was above 1000 nM at CDK1/Cyclin B; above 1000 nM on CDK2/Cyclin A; above 1000 nM on CDK5/p25; below 100 nM at CDK7/Cyclin H/MNAT1; 1000 to 10000 nM in the experiment with H460; 1000 to 10000 nM with MV4-11. In addition, the IC50 in the experiment with A2780 is 1000 to 10000 nM. The “CDK1/CDK7: Selectivity of CDK7 inhibition over CDK1 inhibition” value on CDK7/Cyclin H/MNAT1 is reported as “A (A=greater than 200 fold)”. Besides, the “CDK2/CDK7: Selectivity of CDK7 inhibition over CDK2 inhibition” value at CDK7/Cyclin H/MNAT1 was “A (A=greater than 200 fold)”. Moreover, the “CDK5/CDK7: Selectivity of CDK7 inhibition over CDK5 inhibition” value on CDK7/Cyclin H/MNAT1 is recorded as “A (A=greater than 200 fold)”.
Take `CC(C)c1cnn2c(NCc3ccccc3-c3ccc4ccccc4n3)nc(OC3CCC(O)CC3)nc12` (stereo not drawn) [Compound 269]: the 50% inhibitory concentration (IC50) on CDK1/Cyclin B was above 1000 nM; at CDK2/Cyclin A, above 1000 nM; on CDK5/p25 it was above 1000 nM; at CDK7/Cyclin H/MNAT1, below 100 nM; in the experiment with H460, below 1000 nM; in the experiment with MV4-11, 1000 to 10000 nM. In the experiment with A2780, this compound came in with an IC50 of at most 1000 nM. For the same compound, on CDK7/Cyclin H/MNAT1, the “CDK1/CDK7: Selectivity of CDK7 inhibition over CDK1 inhibition” value is recorded as “A (A=greater than 200 fold)”. The “CDK2/CDK7: Selectivity of CDK7 inhibition over CDK2 inhibition” value on CDK7/Cyclin H/MNAT1 is given as “A (A=greater than 200 fold)”. In addition, the “CDK5/CDK7: Selectivity of CDK7 inhibition over CDK5 inhibition” value at CDK7/Cyclin H/MNAT1 is on record as “A (A=greater than 200 fold)”.
In the case of `CC(C)c1cnn2c(NCc3c(Cl)cccc3-c3ncc(C(C)(C)O)s3)nc(N3CCC(N)CC3)nc12` [Compound 249], the IC50 at CDK1/Cyclin B is above 1000 nM; on CDK2/Cyclin A, above 1000 nM; at CDK5/p25, above 1000 nM; at CDK7/Cyclin H/MNAT1, below 100 nM; in the experiment on H460, below 1000 nM; in the experiment with MV4-11 it was below 1000 nM. Further, the IC50 in the experiment on A2780 is at most 1000 nM. Besides, the “CDK1/CDK7: Selectivity of CDK7 inhibition over CDK1 inhibition” value on CDK7/Cyclin H/MNAT1 was “A (A=greater than 200 fold)”. The “CDK2/CDK7: Selectivity of CDK7 inhibition over CDK2 inhibition” value on CDK7/Cyclin H/MNAT1 is given as “A (A=greater than 200 fold)”. In addition, on CDK7/Cyclin H/MNAT1, the “CDK5/CDK7: Selectivity of CDK7 inhibition over CDK5 inhibition” value is “A (A=greater than 200 fold)”.
As to `CC(C)c1cnn2c(NCc3ccccc3-c3ccc4ccccc4n3)nc(O[C@H]3CC[C@@H](O)CC3)nc12` [Compound 272], the 50% inhibitory concentration (IC50) on CDK1/Cyclin B is above 1000 nM; at CDK2/Cyclin A it was above 1000 nM; at CDK5/p25 it was above 1000 nM; on CDK7/Cyclin H/MNAT1, below 100 nM; in the experiment with H460, 1000 to 10000 nM; in the experiment with MV4-11, 1000 to 10000 nM. For the same compound, in the experiment with A2780, the 50% inhibitory concentration (IC50) was 1000 to 10000 nM. In addition, the “CDK1/CDK7: Selectivity of CDK7 inhibition over CDK1 inhibition” value on CDK7/Cyclin H/MNAT1 was “A (A=greater than 200 fold)”. In addition, on CDK7/Cyclin H/MNAT1, the “CDK2/CDK7: Selectivity of CDK7 inhibition over CDK2 inhibition” value is reported as “A (A=greater than 200 fold)”. Further, the “CDK5/CDK7: Selectivity of CDK7 inhibition over CDK5 inhibition” value at CDK7/Cyclin H/MNAT1 is given as “A (A=greater than 200 fold)”.
